Laboratory results: US20240269157A1, “COMPOSITIONS AND METHODS FOR OVERCOMING MICROENVIRONMENT-MEDIATED RESISTANCE VIA E-SELECTIN TARGETING” (GLYCOMIMETICS, INC., priority 2021, published 2024)

Assays:
[1] = biological target: T1, recombinant human E-selectin-Fc chimera (Homo sapiens, UniProt P16581); test: Adhesion of KG1 AML cells to E-selectin in vitro; assay type: cell-based
T1 construct: purchased R&D Systems 724-ES
Procedure: To further explore this hypothesis, the ability of Compound A to disrupt adhesion of KG1 AML cells to E-selectin was assessed using an in vitro assay. Recombinant human E-selectin-Fc chimera was purchased from R&D Systems (724-ES). KG1 AML cell line was purchased from ATCC (CRL-8031) and cultured in RPMI-1640 medium supplemented with 10% fetal bovine serum (FBS). Costar 96-well polystyrene medium binding assay plates were purchased from Corning (9017). 5-azacitidine (5-AZA) was purchased from Sigma-Aldrich (A2386). Calcein AM was purchased from Molecular Probes (C3100MP). FITC-conjugated antibody reactive with cutaneous lymphocyte antigen (HECA-452-FITC) was purchased from BD Pharmingen (555947).
The wells of a 96-well polystyrene plate were coated with 100 μL of 2 μg/mL recombinant human E-selectin-Fc chimera for 2 hours at 37° C., and then washed three times with Hank's Balanced Saline Solution (HBSS). KG1 cells were fluorescently labeled in culture medium with 3 μM Calcein AM for 60 minutes at 37° C., pelleted by centrifugation at 250×g for 10 minutes, then resuspended in HBSS to 2.5×10^5 cells per mL. Next, 2.5×10^4 cells were added to each well, and the cells were allowed to adhere for 45 minutes at room temperature. In some cases, cells were treated daily with 100 nM 5-azacitidine for 96 hours prior to labeling with Calcein AM and adhesion to E-selectin. Appropriate wells received 1 μL of 10 mM Compound A (final concentration in well: 100 μM) and after 30 minutes the wells were observed by fluorescence microscopy and pre-wash fluorescence measurements were taken using a FlexStation plate reader (excitation 485 nm, emission 538 nm, cutoff 530 nm). Subsequently, the wells were washed gently three times with HBSS and observations by fluorescence microscopy and fluorescence readings were repeated.

KG1 AML tumor cells = test: KG1 AML mouse model survival; assay type: in vivo, NSG mice; details: for median survival time (MST): Compound A 40 mg/kg i.p. qdx14, 5-azacitidine 5 mg/kg i.p. q3dx5
Procedure: A KG1 AML mouse model was also employed to determine whether the E-selectin antagonist Compound A could enhance the anti-tumor effect of 5-azacitidine. Female NSG mice (10 per cohort, six weeks of age) received i.v. injections of 5×10^6 KG1 AML tumor cells per mouse. Beginning 7 days post injection, mice were randomized into four cohorts and treated with either saline (i.p. (intraperitoneal), qdx14 (once daily for 14 days)), Compound A (40 mg/kg i.p. qdx14), 5-azacitidine (5 mg/kg i.p. q3dx5), or a combination of Compound A and 5-azacitidine. The efficacies of the treatments on survival were determined by the Kaplan-Meier estimator and log-rank statistics were used to test for significant differences in survival (FIG. 11). The median survival time (MST) of mice treated with 5-azacitidine was 88 days and statistically different from that of mice treated with saline (MST=69.5 days) or Compound A alone (MST=69 days). […] At study conclusion, (day 104 post tumor injection) 20% of mice treated with 5-azacitidine remained alive.

luc-MV4.11 cells = test: MV4.11 AML model survival; assay type: in vivo, NSG mice; details: 40 mg/kg Compound A i.p., 100 mg/kg venetoclax oral, 14 days once daily
Procedure: To evaluate the efficacy of targeting E-selectin with Compound A in combination with venetoclax, an in vivo MV4.11 AML model was employed (FIG. 16).
luc-MV4.11 cells (5×10^6 cells/mouse) were transplanted into NSG mice. Mice were divided into four groups: vehicle treatment only; 40 mg/kg of Compound A (intraperitoneal, 14 day once daily); 100 mg/kg venetoclax (oral, 14 days once daily), and a combination of 40 mg/kg Compound A and 100 mg/kg venetoclax. Drug treatment was initiated on day 10 post-transplantation.

[2] = test system: HUVECs co-cultured with AML cells; test: eNOS phosphorylation in HUVECs co-cultured with AML cells; assay type: cell-based; parameters: dose or concentration left out as unconfirmed
HUVEC co-cultured AML = test: Cell cycle regulating protein expression in HUVEC co-cultured AML; assay type: cell-based, human
[3] = test system: PDX-AML (Ven/HMA-resistant); test: PDX-AML (Ven/HMA-resistant) model, FLT3-ITD, NRAS, GATA2 mutations; assay type: in vivo, NSG mice
Excerpt: To evaluate the efficacy of targeting E-selectin with Compound A to selectively eradicate leukemia cells resistant to venetoclax/HMA therapy in the bone marrow niche, an […] PDX-AML model derived from an AML patient harboring FLT3-ITD, NRAS, and GATA2 mutations who initially responded to venetoclax/HMA therapy and then relapsed was employed (FIG. 1). The model reflects the present situation for many elderly AML patients: initial sensitivity, followed by resistance to venetoclax/HMA and relapse.
Patient-derived PDX cells from an AML patient (2.5×10^6 cells/mouse) were transplanted via tail vein into NSG mice. Once AML cells began to engraft, mice were divided into four groups: vehicle treatment only; 40 mg/kg of Compound A; 50 mg/kg venetoclax+5.5 mg/kg 5-azacitidine; and a combination of 40 mg/kg Compound A and 50 mg/kg venetoclax+5.5 mg/kg 5-azacitidine. Drug treatment was performed from day 60 to day 82 post-transplantation.
Leukemia progression and tumor burden were evaluated weekly during the treatment period (for 22 days) by determining the frequency and absolute number of human CD45^+ cells in peripheral blood using flow cytometry analysis. The synergistic effects of the combinatorial treatment on AML-PDX mouse survival were determined by Kaplan-Meier analysis (FIG. 2). […] The median survival of the vehicle control, Compound A, venetoclax/HMA, and combination-treated (Compound A+venetoclax/HMA) groups of mice was 86, 91, 81.5, and 106.5 days, respectively.
At the time when all of the control group of mice were moribund (after 23 days of treatment), 3 mice per group were sacrificed for single cell proteomics (CyTOF) and immunohistochemistry analysis.

T1 sequence (P16581 with tags, fused parts or gaps limits assumed): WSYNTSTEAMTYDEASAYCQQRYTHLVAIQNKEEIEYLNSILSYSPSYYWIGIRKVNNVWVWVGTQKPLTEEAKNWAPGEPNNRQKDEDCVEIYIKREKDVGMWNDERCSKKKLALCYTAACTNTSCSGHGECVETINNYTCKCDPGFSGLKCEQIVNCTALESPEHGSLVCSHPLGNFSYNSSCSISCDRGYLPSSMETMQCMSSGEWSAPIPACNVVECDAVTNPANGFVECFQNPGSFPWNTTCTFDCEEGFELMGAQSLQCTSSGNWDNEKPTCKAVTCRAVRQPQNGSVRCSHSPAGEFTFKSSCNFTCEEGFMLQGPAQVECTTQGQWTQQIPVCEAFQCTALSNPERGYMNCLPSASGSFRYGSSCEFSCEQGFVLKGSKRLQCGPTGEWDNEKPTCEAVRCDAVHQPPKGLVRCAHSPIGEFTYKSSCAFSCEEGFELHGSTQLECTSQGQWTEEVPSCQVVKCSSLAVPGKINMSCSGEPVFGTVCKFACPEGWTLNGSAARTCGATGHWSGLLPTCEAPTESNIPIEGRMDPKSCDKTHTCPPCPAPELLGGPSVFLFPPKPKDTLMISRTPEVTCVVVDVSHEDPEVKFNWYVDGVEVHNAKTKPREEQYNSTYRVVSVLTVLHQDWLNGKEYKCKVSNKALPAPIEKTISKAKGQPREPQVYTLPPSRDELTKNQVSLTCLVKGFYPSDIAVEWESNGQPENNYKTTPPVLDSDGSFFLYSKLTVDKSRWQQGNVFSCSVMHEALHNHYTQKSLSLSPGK

**Q.** CCC1CC(C(=O)NCCNC(=O)CCOCCOCCOCCOCCOCCOCCOCCOCCOCCOCCOCCOC)C[C@@H](O[C@@H]2OC(CO)[C@H](O)C(O[C@@H](CC3CCCCC3)C(=O)O)C2NC(C)=O)[C@@H]1OC1O[C@@H](C)[C@H](O)C(O)[C@@H]1O (some centres unmarked) [Compound A] was tested. Which “fluorescence units after treatment of previously attached cells” value ([1]; 100 μM Compound A, 30 minutes, p=0.001) did it give?
**A.** The value was 55.2 fluorescence units.

**Q.** And the outcome of mice (KG1 AML tumor cells; All mice treated)?
**A.** The outcome of mice was “succumbed to progressive tumor growth”.

**Q.** What about the “median survival time (MST)” value (KG1 AML tumor cells) of the same compound?
**A.** The value was 69 days.

**Q.** And the “median survival time (MST)” value (luc-MV4.11 cells)?
**A.** The value was 39 days.

**Q.** And the “phosphorylation of the enzyme eNOS” value [2]?
**A.** Its value is “attenuated”.

**Q.** And the “expression of cell cycle regulating proteins including CDK4, CDK6, CyclinD1, and CyclinD2” value (HUVEC co-cultured AML)?
**A.** Its value is “increased”.

**Q.** And the median survival ([3]; 40 mg/kg Compound A, 50 mg/kg venetoclax+5.5 mg/kg 5-azacitidine, day 60 to 82)?
**A.** Its median survival is 91 days.

**Q.** And the “anti-leukemia efficacy of venetoclax/HMA” value ([3]; CyTOF, in vivo administration)?
**A.** Its value is “enhanced”.

**Q.** What about the “leukemia cell infiltration in bone marrow, spleen, lung, and liver” value ([3]; histology, Compound A only compared to normal control mice) of the same compound?
**A.** Its value is “increased”.

**Q.** What about the “mobilization of human AML cells” value ([3]; mouse, in vivo) of the same compound?
**A.** The value was “mobilized”.

**Q.** Which “increase in adhesion to E-selectin” value ([1]; 100 nM 5-AZA 96 hours vs not treated) does the source give for Nc1ncn([C@@H]2O[C@H](CO)[C@@H](O)[C@H]2O)c(=O)n1 [5-azacitidine] here?
**A.** The value was 57%.

**Q.** And the “fluorescence units of adhered cells” value ([1]; KG1 cells treated for 96 hours with 100 nM 5-AZA)?
**A.** The value was 560.6 fluorescence units.

**Q.** And the “median survival time (MST)” value (KG1 AML tumor cells)?
**A.** Its value is 88 days.

**Q.** And the “mice remaining alive at study conclusion” value (KG1 AML tumor cells; day 104 post tumor injection)?
**A.** Its value is 20%.
